Data reported in ChEMBL document CHEMBL5678804 (Cancer Cell, 2011).
pIC50: −log10 of the molar value. The source made the active and inactive calls. The calls are words filed in the database; no cut-off is given here.

Experiments:
[1] = target: Serine/threonine-protein kinase ULK2 (Homo sapiens, UniProt Q8IYT8); experiment: Inhibition of human wild type ULK2 using Casein as substrate preincubated for 2 hrs followed by ATP addition and measured every 2 mins for […] by spectrophotometric analysis
[2] = target: Ribosomal protein S6 kinase alpha-4 (Homo sapiens, UniProt O75676); experiment: Inhibition of human wild type MSK2 using RBER-CHKtide as substrate preincubated for 2 hrs followed by ATP addition and measured every 2 mins for […] by spectrophotometric analysis
[3] = target: Dual specificity mitogen-activated protein kinase kinase 6 (Homo sapiens, UniProt P52564); experiment: Inhibition of human wild type MKK6 using p38-alpha KA as substrate preincubated for 2 hrs followed by ATP addition and measured every 2 mins for […] by spectrophotometric analysis
[4] = target: Homeodomain-interacting protein kinase 1 (Homo sapiens, UniProt Q86Z02); experiment: Inhibition of human wild type HIPK1 using RBER-CHKtide as substrate preincubated for 2 hrs followed by ATP addition and measured every 2 mins for […] by spectrophotometric analysis
[5] = target: Serine/threonine-protein kinase ULK1 (Homo sapiens, UniProt O75385); experiment: Inhibition of human wild type ULK1 using Casein as substrate preincubated for 2 hrs followed by ATP addition and measured every 2 mins for […] by spectrophotometric analysis
Wee1-like protein kinase = Wee1-like protein kinase (Homo sapiens, UniProt P30291); experiment: Inhibition of human wild type WEE1 using Poly(Ala,Glu,Lys,Tyr)6:2:5:1 as substrate preincubated for 2 hrs followed by ATP addition and measured every 2 mins for […] by spectrophotometric analysis
[6] = target: Glycogen synthase kinase-3 alpha (Homo sapiens, UniProt P49840); experiment: Inhibition of human wild type GSK3 alpha using SUPT5 754to 837 as substrate preincubated for 2 hrs followed by ATP addition and measured every 2 mins for […] by spectrophotometric analysis
[7] = target: Mitogen-activated protein kinase 3 (Homo sapiens, UniProt P27361); experiment: Inhibition of human wild type ERK1 using RBER-CHKtide as substrate preincubated for 2 hrs followed by ATP addition and measured every 2 mins for […] by spectrophotometric analysis
[8] = target: Crk-like protein (Homo sapiens) (UniProt P46109); experiment: Inhibition of CrkL phosphorylation in Ph+ B-ALL patient with […] mutation derived human Leukemia cell at 50 to 1000 nM by immunoblot analysis; assay type: cell-based; details: dose 50-1000 nM
Ephrin type-B receptor 3 = Ephrin type-B receptor 3 (Homo sapiens, UniProt P54753); experiment: Inhibition of human wild type EPHB3 using PolyEY as substrate preincubated for 2 hrs followed by ATP addition and measured every 2 mins for […] by spectrophotometric analysis
BaF3 [9] = experiment: Antileukemic activity against mouse BaF3 cells harbouring BCR-ABL1 T315I mutant transduced with 5-FU treated bone marrow xenografted in Balb/c mouse assessed as improvement in circulating leukocyte count at 100 mg/kg, po administered once daily measured upto 56 days; assay type: functional, organism-based; details: time <= 56.0 day
[10] = target: Fibroblast growth factor receptor 3 (Homo sapiens, UniProt P22607); experiment: Inhibition of human wild type FGFR3 using PolyEY as substrate preincubated for 2 hrs followed by ATP addition and measured every 2 mins for […] by spectrophotometric analysis
[11] = target: Death-associated protein kinase 3 (Homo sapiens, UniProt O43293); experiment: Inhibition of human wild type ZIPK using RBER-GSK3([…] to […]) as substrate preincubated for 2 hrs followed by ATP addition and measured every 2 mins for […] by spectrophotometric analysis
[12] = target: Insulin receptor-related protein (Homo sapiens, UniProt P14616); experiment: Inhibition of human wild type IRR using Poly(Ala,Glu,Lys,Tyr)6:2:5:1 as substrate preincubated for 2 hrs followed by ATP addition and measured every 2 mins for […] by spectrophotometric analysis
[13] = target: Mitogen-activated protein kinase 10 (Homo sapiens, UniProt P53779); experiment: Inhibition of human wild type JNK3 using ATF2 as substrate preincubated for 2 hrs followed by ATP addition and measured every 2 mins for […] by spectrophotometric analysis
Ephrin type-A receptor 6 = Ephrin type-A receptor 6 (Homo sapiens, UniProt Q9UF33); experiment: Inhibition of human wild type EPHA6 using PolyEY as substrate preincubated for 2 hrs followed by ATP addition and measured every 2 mins for […] by spectrophotometric analysis
[14] = target: Protein kinase C alpha type (Homo sapiens, UniProt P17252); experiment: Inhibition of human wild type PKC alpha using 3xChocktide-PKC(19to 31) as substrate preincubated for 2 hrs followed by ATP addition and measured every 2 mins for […] by spectrophotometric analysis
[15] = target: Rho-associated protein kinase 1 (Homo sapiens, UniProt Q13464); experiment: Inhibition of human wild type ROCK1 using 3xChocktide-PKC([…] to […]) as substrate preincubated for 2 hrs followed by ATP addition and measured every 2 mins for […] by spectrophotometric analysis
[16] = target: Mitogen-activated protein kinase kinase kinase 10 (Homo sapiens, UniProt Q02779); experiment: Inhibition of human wild type MLK2 using Histon H2B as substrate preincubated for 2 hrs followed by ATP addition and measured every 2 mins for […] by spectrophotometric analysis
[17] = target: Homeodomain-interacting protein kinase 4 (Homo sapiens, UniProt Q8NE63); experiment: Inhibition of human wild type HIPK4 using RBER-IRStide as substrate preincubated for 2 hrs followed by ATP addition and measured every 2 mins for […] by spectrophotometric analysis
BaF3 [18] = experiment: cells; details: Mus musculus, BaF3, 72 h
[19] = target: Tyrosine-protein kinase ITK/TSK (Homo sapiens, UniProt Q08881); experiment: Inhibition of human wild type ITK using PolyEY as substrate preincubated for 2 hrs followed by ATP addition and measured every 2 mins for […] by spectrophotometric analysis
[20] = target: Mitogen-activated protein kinase kinase kinase kinase 2 (Homo sapiens, UniProt Q12851); experiment: Inhibition of human wild type GCK using Chocktide-PKC(19t o 31) as substrate preincubated for 2 hrs followed by ATP addition and measured every 2 mins for […] by spectrophotometric analysis
[21] = target: Testis-specific serine/threonine-protein kinase 2 (Homo sapiens, UniProt Q96PF2); experiment: Inhibition of human wild type TSSK2 using RBER-CHKtide as substrate preincubated for 2 hrs followed by ATP addition and measured every 2 mins for […] by spectrophotometric analysis
[22] = target: Serine/threonine-protein kinase N1 (Homo sapiens, UniProt Q16512); experiment: Inhibition of human wild type PKN1 using RBER-CHKtide as substrate preincubated for 2 hrs followed by ATP addition and measured every 2 mins for […] by spectrophotometric analysis
Misshapen-like kinase 1 = Misshapen-like kinase 1 (Homo sapiens, UniProt Q8N4C8); experiment: Inhibition of human wild type MINK using RBER-CHKtide as substrate preincubated for 2 hrs followed by ATP addition and measured every 2 mins for […] by spectrophotometric analysis
[23] = target: Serine/threonine-protein kinase MARK1 (Homo sapiens, UniProt Q9P0L2); experiment: Inhibition of human wild type MARK1 using RBER-CHKtide as substrate preincubated for 2 hrs followed by ATP addition and measured every 2 mins for […] by spectrophotometric analysis

Sequence of Dual specificity mitogen-activated protein kinase kinase 6 (P52564 whole entry): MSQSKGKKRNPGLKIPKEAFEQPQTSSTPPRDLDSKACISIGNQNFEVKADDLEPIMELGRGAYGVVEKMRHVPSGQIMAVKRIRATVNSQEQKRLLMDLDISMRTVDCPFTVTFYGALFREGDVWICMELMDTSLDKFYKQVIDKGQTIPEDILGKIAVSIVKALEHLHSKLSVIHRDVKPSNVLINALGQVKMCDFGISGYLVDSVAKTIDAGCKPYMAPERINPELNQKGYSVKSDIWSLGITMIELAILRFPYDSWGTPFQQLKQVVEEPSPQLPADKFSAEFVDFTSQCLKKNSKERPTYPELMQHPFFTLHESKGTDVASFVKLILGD
Sequence of Death-associated protein kinase 3 (O43293 whole entry): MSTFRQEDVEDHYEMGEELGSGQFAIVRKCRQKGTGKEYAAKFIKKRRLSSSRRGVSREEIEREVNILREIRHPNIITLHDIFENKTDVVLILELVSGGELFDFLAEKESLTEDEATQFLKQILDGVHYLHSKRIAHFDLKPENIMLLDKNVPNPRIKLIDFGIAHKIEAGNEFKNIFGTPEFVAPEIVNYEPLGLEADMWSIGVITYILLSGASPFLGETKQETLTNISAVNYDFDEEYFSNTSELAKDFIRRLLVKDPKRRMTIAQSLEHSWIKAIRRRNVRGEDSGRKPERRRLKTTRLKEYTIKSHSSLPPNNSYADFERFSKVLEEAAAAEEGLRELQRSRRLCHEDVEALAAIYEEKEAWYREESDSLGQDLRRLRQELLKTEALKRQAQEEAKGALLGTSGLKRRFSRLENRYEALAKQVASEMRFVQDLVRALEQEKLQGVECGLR
Sequence of Insulin receptor-related protein (P14616 27-742 limits assumed): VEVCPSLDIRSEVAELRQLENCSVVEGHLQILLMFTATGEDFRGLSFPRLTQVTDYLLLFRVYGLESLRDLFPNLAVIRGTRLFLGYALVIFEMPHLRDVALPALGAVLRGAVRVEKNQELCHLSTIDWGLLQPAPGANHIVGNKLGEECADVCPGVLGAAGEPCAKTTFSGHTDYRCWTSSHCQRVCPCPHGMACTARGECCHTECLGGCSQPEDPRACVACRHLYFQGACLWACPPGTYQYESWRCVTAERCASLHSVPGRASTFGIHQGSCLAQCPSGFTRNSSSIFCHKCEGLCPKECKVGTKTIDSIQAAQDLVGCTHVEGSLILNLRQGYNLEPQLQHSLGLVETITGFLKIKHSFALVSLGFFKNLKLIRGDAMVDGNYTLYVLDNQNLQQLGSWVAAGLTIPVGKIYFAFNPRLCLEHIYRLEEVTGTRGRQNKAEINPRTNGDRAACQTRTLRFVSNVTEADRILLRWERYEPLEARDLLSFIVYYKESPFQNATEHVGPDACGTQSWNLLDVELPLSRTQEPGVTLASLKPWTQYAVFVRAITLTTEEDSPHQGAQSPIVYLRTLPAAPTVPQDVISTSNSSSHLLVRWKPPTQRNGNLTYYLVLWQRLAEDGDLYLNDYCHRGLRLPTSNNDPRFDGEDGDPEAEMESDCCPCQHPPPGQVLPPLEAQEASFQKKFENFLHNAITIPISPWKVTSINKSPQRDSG
Sequence of Insulin receptor-related protein (P14616 747-1297 limits assumed): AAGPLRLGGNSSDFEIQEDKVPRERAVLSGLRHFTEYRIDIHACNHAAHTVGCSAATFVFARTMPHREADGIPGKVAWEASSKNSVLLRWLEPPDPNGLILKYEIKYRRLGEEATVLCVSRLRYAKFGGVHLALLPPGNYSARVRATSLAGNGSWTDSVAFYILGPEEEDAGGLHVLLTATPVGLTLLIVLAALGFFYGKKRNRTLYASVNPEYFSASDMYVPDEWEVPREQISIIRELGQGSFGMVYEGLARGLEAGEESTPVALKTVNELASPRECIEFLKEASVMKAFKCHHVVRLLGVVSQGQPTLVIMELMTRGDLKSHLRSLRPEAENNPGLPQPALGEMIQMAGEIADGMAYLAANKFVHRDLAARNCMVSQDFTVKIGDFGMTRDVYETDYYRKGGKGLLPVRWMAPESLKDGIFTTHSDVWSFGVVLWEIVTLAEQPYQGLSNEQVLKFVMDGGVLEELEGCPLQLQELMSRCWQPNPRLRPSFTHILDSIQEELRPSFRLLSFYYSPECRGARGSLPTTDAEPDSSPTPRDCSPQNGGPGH
Sequence of Ephrin type-B receptor 3 (P54753 whole entry): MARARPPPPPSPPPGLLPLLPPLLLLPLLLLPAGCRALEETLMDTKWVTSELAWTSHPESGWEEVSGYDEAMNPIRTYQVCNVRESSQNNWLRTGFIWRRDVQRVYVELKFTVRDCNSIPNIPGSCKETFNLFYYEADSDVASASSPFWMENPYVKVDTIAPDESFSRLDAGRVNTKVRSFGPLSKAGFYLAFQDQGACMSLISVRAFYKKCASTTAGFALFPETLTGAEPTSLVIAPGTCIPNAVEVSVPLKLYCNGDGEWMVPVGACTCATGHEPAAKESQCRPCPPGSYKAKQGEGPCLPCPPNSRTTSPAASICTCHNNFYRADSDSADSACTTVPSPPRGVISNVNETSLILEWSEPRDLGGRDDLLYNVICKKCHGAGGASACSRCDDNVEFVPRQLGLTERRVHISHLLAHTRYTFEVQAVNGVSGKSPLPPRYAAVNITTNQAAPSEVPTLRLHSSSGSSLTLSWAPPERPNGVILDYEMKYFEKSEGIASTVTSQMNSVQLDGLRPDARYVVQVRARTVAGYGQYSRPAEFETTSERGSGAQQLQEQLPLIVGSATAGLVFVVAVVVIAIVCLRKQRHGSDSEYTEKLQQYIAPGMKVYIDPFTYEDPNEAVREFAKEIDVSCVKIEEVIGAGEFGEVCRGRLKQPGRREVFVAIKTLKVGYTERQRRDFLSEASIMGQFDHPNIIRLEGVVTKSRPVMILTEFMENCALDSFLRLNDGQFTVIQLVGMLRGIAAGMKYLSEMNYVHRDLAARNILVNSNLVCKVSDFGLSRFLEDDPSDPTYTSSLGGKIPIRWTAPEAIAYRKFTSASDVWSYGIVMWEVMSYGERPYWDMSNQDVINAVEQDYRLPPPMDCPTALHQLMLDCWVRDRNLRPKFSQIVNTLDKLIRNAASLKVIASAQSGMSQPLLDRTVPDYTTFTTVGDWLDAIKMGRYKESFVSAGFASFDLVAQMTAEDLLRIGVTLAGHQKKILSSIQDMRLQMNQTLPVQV
Sequence of Mitogen-activated protein kinase 3 (P27361 whole entry): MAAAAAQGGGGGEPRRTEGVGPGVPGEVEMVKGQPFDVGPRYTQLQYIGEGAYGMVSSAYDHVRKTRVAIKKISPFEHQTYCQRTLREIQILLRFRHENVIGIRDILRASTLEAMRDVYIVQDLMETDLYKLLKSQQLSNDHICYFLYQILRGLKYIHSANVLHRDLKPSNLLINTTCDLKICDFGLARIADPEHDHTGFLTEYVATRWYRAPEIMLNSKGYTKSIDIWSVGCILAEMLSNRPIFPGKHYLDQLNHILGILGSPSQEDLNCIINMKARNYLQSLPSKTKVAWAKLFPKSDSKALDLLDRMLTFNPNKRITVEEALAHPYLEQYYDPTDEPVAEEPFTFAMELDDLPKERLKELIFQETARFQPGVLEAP
Sequence of Mitogen-activated protein kinase kinase kinase kinase 2 (Q12851 whole entry): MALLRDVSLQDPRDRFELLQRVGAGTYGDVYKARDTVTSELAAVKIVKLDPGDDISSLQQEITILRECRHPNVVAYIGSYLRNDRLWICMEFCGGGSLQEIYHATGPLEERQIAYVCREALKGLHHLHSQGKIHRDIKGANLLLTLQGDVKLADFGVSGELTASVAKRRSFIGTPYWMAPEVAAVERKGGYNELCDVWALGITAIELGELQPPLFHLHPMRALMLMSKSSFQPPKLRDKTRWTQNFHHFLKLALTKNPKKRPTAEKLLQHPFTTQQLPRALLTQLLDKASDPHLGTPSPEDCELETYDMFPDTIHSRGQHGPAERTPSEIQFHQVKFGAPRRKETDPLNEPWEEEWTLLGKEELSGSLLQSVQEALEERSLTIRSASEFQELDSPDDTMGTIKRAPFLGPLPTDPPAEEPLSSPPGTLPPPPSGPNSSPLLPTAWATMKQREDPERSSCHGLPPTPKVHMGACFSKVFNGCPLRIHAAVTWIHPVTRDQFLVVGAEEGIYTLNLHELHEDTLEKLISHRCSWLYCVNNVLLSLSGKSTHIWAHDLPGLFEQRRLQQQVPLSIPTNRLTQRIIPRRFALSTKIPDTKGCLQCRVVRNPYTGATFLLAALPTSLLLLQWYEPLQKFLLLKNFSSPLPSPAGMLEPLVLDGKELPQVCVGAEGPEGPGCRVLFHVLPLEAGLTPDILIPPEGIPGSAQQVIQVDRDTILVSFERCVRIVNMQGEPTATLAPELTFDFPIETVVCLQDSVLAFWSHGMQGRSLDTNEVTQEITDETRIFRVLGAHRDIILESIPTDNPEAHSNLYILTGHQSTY
Sequence of Crk-like protein (Homo sapiens) (P46109 whole entry): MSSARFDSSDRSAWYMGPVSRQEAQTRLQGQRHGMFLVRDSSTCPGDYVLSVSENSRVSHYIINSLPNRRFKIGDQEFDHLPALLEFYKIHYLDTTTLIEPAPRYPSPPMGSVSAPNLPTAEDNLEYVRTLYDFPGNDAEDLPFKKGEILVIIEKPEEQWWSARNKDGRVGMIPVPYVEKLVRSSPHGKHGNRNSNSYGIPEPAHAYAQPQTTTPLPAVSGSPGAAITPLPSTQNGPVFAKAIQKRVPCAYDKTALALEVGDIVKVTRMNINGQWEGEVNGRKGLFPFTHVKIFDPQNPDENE
Sequence of Mitogen-activated protein kinase 10 (P53779 whole entry): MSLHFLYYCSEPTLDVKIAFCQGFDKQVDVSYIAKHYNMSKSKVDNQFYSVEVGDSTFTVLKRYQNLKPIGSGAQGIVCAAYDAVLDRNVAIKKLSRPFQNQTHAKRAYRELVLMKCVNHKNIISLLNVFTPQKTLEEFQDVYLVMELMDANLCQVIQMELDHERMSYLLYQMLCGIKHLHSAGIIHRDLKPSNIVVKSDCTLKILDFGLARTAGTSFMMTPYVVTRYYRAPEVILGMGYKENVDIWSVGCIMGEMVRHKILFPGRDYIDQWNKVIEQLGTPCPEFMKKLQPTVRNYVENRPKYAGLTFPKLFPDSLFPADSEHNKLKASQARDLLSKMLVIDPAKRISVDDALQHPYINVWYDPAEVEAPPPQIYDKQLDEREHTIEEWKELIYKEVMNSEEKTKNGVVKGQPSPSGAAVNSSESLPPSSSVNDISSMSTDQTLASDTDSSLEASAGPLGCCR

Q: How did the pIC50 [1] turn out when `CNC(=O)c1cc(Oc2ccc(NC(=O)Nc3cc(C(C)(C)C)nn3-c3ccc4ncccc4c3)c(F)c2)ccn1` [REBASTINIB] was run?
A: Its pIC50 is 6.49.

Q: What about the pIC50 [2] of the same compound?
A: The pIC50 was < 6.00.

Q: And the pIC50 [3]?
A: The pIC50 was < 6.00.

Q: And the pIC50 [4]?
A: Its pIC50 is < 6.00.

Q: And the pIC50 [5]?
A: The pIC50 was < 6.00.

Q: And the pIC50 (Wee1-like protein kinase)?
A: Its pIC50 is < 6.00.

Q: And the pIC50 [6]?
A: Its pIC50 is < 6.00.

Q: What about the pIC50 [7] of the same compound?
A: Its pIC50 is < 6.00.

Q: What about the inhibition [8] of the same compound?
A: Its inhibition is “Active”.

Q: And the pIC50 (Ephrin type-B receptor 3)?
A: Its pIC50 is < 6.00.

Q: And the Activity (BaF3 [9])?
A: The Activity was “Active”.

Q: What about the pIC50 [10] of the same compound?
A: Its pIC50 is 8.00.

Q: What about the pIC50 [11] of the same compound?
A: Its pIC50 is < 6.00.

Q: And the pIC50 [12]?
A: Its pIC50 is < 6.00.

Q: What about the pIC50 [13] of the same compound?
A: Its pIC50 is < 6.00.

Q: And the pIC50 (Ephrin type-A receptor 6)?
A: Its pIC50 is 7.77.

Q: What about the pIC50 [14] of the same compound?
A: The pIC50 was < 6.00.

Q: What about the pIC50 [15] of the same compound?
A: The pIC50 was < 6.00.

Q: And the pIC50 [16]?
A: The pIC50 was < 6.00.

Q: What about the pIC50 [17] of the same compound?
A: Its pIC50 is 6.35.

Q: What about the pIC50 (BaF3 [18]) of the same compound?
A: Its pIC50 is 8.22.

Q: And the pIC50 [19]?
A: Its pIC50 is 6.57.

Q: What about the pIC50 [20] of the same compound?
A: The pIC50 was 6.64.

Q: What about the pIC50 [21] of the same compound?
A: Its pIC50 is < 6.00.

Q: What about the pIC50 [22] of the same compound?
A: Its pIC50 is < 6.00.

Q: What about the pIC50 (Misshapen-like kinase 1) of the same compound?
A: The pIC50 was 7.96.

Q: What about the pIC50 [23] of the same compound?
A: Its pIC50 is < 6.00.
